Test results as given in publication PMC4457802 (PLoS ONE, 2015).
Where two headings read alike, the source gives them in different places.

What was measured:
Streptococcus pneumoniae = test: Time killing assay; format: cell-based; details: 1×MIC; for time to totally eliminate resistant strain: failed up to 240 min of treatment; for time to eradicate susceptible pneumococcal isolate / time to completely kill 10^6 CFU/ml of S. pneumoniae: MHB, 37°C, triplicate; for time to completely kill 10^6 CFU/ml of S. pneumoniae: sampled every 30 min to 240 min
Protocol: The bactericidal activities of peptides were performed as described previously. […] 10μl of bacterial suspensions were removed at various time intervals (30, 60, 90, 120, 150, 180, 210, and 240 min), serially diluted in PBS and plated onto Columbia agar with 5% sheep blood for 20-24hr at 37°C in the presence of 5% CO2 to obtain viable colonies. Erythromycin and ceftriaxone were used as positive control and the assay was performed in triplicate.

[1] = system: S. pneumoniae (30 clinical isolates); format: cell-based, Streptococcus pneumoniae; details: for MIC S. pneumoniae (30 clinical isolates), in parentheses: numbers in parentheses are micromolar concentrations; for MIC S. pneumoniae (30 clinical isolates): broth microdilution, CAMHB, 20-24hr, 37°C, 5% CO2, lowest concentration that completely inhibits growth
Source text: (§1) Thirty (30) Pneumococcal clinical isolates were obtained from University of Malaya Medical Centre (UMMC). For broad-spectrum activity of AMPs, E. coli ATCC 25922, Staphylococcus aureus ATCC 25923, P. aeruginosa ATCC 15442, Acinetobacter baumanii ATCC 15308, and one clinical isolate of each methicillin resistant S. aureus (MRSA), […], citrobacter spp., and K. pneumoniae were used in this study.
(§2) The minimum inhibitory concentration (MIC) of the peptides against 30 pneumococcal isolates was determined by broth microdilution protocol as indicated by the CLSI guidelines (Clinical and Laboratory Standards Institute). Briefly, bacterial strains were grown for 18–24 hr at 37°C under 5% CO2. Direct suspension of the colonies were made in cationically-adjusted Müeller-Hinton broth (CAMHB) and adjusted to OD 625 0.08–0.1 which corresponds to 1 ~ 2 x10^8 CFU/ml followed by serial ten-fold dilutions to give 1x10^6 CFU/ml. 50μl of bacterial suspension were added to 96-well round bottom microtiter plates containing equal volume of peptides at different concentrations (1.95, 3.90, 7.81, 15.62, 31.25, 62.5, 125, 250μg/ml) and the 96-well plates were incubated for 20-24hr at 37°C in the presence of 5% CO2.

[2] = system: Acinetobacter baumanii ATCC 15308; format: cell-based; details: numbers in parentheses are micromolar concentrations
Source text: as §1, §2

E. coli ATCC 25922 = format: cell-based; details: numbers in parentheses are micromolar concentrations
Source text: as §1, §2

Enterococcus cloacae = format: cell-based; details: numbers in parentheses are micromolar concentrations
Source text: as §1, §2

K. pneumoniae = format: cell-based; details: numbers in parentheses are micromolar concentrations
Source text: as §1, §2

[3] = system: Methicillin resistant S. aureus (MRSA); format: cell-based; details: numbers in parentheses are micromolar concentrations
Source text: as §1, §2

P. aeruginosa ATCC 15442 = format: cell-based; details: numbers in parentheses are micromolar concentrations
Source text: as §1, §2

citrobacter spp = format: cell-based; details: numbers in parentheses are micromolar concentrations
Source text: as §1, §2

S. aureus ATCC 25923 = format: cell-based, Staphylococcus aureus; details: for MIC S. aureus ATCC 25923, in parentheses: numbers in parentheses are micromolar concentrations
Source text: as §1, §2

[4] = system: NL-20 normal lung cell line; format: cell-based, human
Protocol: (§3) CellTiter 96 AQueous Non-Radioactive Cell Proliferation assay (Promega, USA) was used to evaluate the cytotoxic effects of peptides. WRL-68 (ATCC CL-48) and NL-20 (ATCC CRL2503) cell lines were purchased from American Type Culture Collection (ATCC, USA). The cell lines were grown in Dulbecco's modified Eagle's medium (DMEM) and Ham’s F-12 medium, respectively. Cells were supplemented with 10% (v/v) fetal bovine serum (FBS) in T75 flasks and incubated at 37°C in the presence of 5% CO2. Cells were seeded into 96-well plates at a density of 1×10^4 and 3×10^4 cells per well, respectively. Peptides were added to the wells at different concentrations (1.95, 3.90, 7.81, 15.62, 31.25, 62.5, 125, and 250μg) and plates were incubated at 37°C under 5% CO2 for 24, 48, and 72 hrs. Medium with and without cells was used as positive and negative controls, respectively. After incubation, 20μl of the reagent were added to each well and incubated for 1 hr at 37°C under 5% CO2. Metabolically active cells convert the yellow MTS to purple formazan, allowing for monitoring of the reaction. The absorbance was monitored at 490 nm using GloMax Multi Detection System (Promega, USA). The percentage of viable cells was calculated according to the following formula: 100 (AT-AB/AC-AB), where AT and AC are the absorbance of treated and control cells (100% survival). AB is the absorbance of medium alone. The assay was done in triplicate.

[5] = system: WRL-68 normal liver cell line; format: cell-based, human
Protocol: as §3

Molecule | MIC S. pneumoniae (30 clinical isolates), in parentheses ([1]; unit of the source corrected) | MIC Acinetobacter baumanii ATCC 15308, in parentheses [2] | MIC E. coli ATCC 25922, in parentheses (E. coli ATCC 25922; unit of the source corrected) | MIC Enterococcus cloacae, in parentheses (Enterococcus cloacae) | MIC K. pneumoniae, in parentheses (K. pneumoniae) | MIC MRSA, in parentheses ([3]; unit of the source corrected) | MIC P. aeruginosa ATCC 15442, in parentheses (P. aeruginosa ATCC 15442) | MIC citrobacter spp, in parentheses (citrobacter spp) | MIC S. aureus ATCC 25923, in parentheses (S. aureus ATCC 25923; unit of the source corrected) | MIC S. pneumoniae (30 clinical isolates) [1] | MIC P. aeruginosa ATCC 15442, in parentheses (P. aeruginosa ATCC 15442; unit of the source corrected) | time to completely kill 10^6 CFU/ml of S. pneumoniae (Streptococcus pneumoniae) | also measured
CO/N=C(\C(=O)N[C@@H]1C(=O)N2C(C(=O)O)=C(CSc3nc(=O)c(=O)[nH]n3C)CS[C@H]12)c1csc(N)n1 [ceftriaxone, reference compound] | – | – | – | – | – | – | – | – | – | – | – | – | time to totally eliminate resistant strain (Streptococcus pneumoniae): > 240 min; time to eradicate susceptible pneumococcal isolate (Streptococcus pneumoniae): 150 min
CC[C@H]1OC(=O)[C@H](C)[C@@H](O[C@H]2C[C@@](C)(OC)[C@@H](O)[C@H](C)O2)[C@H](C)[C@@H](O[C@@H]2O[C@H](C)C[C@H](N(C)C)[C@H]2O)[C@](C)(O)C[C@@H](C)C(=O)[C@H](C)[C@@H](O)[C@]1(C)O [erythromycin, reference compound] | – | – | – | – | – | – | – | – | – | – | – | – | time to totally eliminate resistant strain (Streptococcus pneumoniae): > 240 min; time to eradicate susceptible pneumococcal isolate (Streptococcus pneumoniae): 120 min
FLGGLIKIVPAMICAVRKKC-OH [RN1, ranalexin analog] | 250 µg/mL | >250 (>115.7) micromolar | 250 µg/mL | >250 (>115.7) micromolar | >250 (>115.7) micromolar | 250 µg/mL | >250 (>115.7) micromolar | >250 (>115.7) micromolar | 125 µg/mL | – | – | – | –
FLGGLIKKWPWWPWRR-NH2 [RN7-IN9, hybrid peptide of ranalexin and indolicidin] | 7.81 to 15.6 µg/mL | 31.25 (14.7) micromolar | 7.81 µg/mL | >250 (>117) micromolar | >250 (>117) micromolar | 7.81 µg/mL | – | >250 (>117) micromolar | 7.81 µg/mL | 7.81 to 15.62 µg/mL | 31.2 µg/mL | ≤ 150 min | concentration at which toxic, NL-20 [4]: ≥ 125 µg/mL; concentration at which toxic, WRL-68 [5]: ≥ 62.5 µg/mL
FLGGLIKPVPAMICAVRKKC-OH [RN2, ranalexin analog] | – | >250 (>116) micromolar | – | >250 (>116) micromolar | >250 (>116) micromolar | – | >250 (>116) micromolar | >250 (>116) micromolar | – | – | – | – | MIC S. pneumoniae (30 clinical isolates), in parentheses [1]: >250 (>116) micromolar; MIC E. coli ATCC 25922, in parentheses (E. coli ATCC 25922): >250 (>116) micromolar; MIC MRSA, in parentheses [3]: >250 (>116) micromolar; MIC S. aureus ATCC 25923, in parentheses (S. aureus ATCC 25923): >250 (>116) micromolar
FLGGLIKPWWPWRR-NH2 [RN7-IN7, hybrid peptide of ranalexin and indolicidin] | 31.2 to 62.5 µg/mL | 125 (69) micromolar | 31.2 µg/mL | >250 (>138) micromolar | >250 (>138) micromolar | 31.2 µg/mL | – | >250 (>138) micromolar | 31.2 µg/mL | 31.25 to 62.5 µg/mL | 62.5 µg/mL | 120 min | –
FLGGLIKRPPAMICAVRKKC-OH [RN4, ranalexin analog] | – | >250 (>113) micromolar | – | >250 (>113) micromolar | >250 (>113) micromolar | – | >250 (>113) micromolar | >250 (>113) micromolar | – | – | – | – | MIC S. pneumoniae (30 clinical isolates), in parentheses [1]: >250 (>113) micromolar; MIC E. coli ATCC 25922, in parentheses (E. coli ATCC 25922): >250 (>113) micromolar; MIC MRSA, in parentheses [3]: >250 (>113) micromolar; MIC S. aureus ATCC 25923, in parentheses (S. aureus ATCC 25923): >250 (>113) micromolar
FLGGLIKRVPAMICAVRKKC-OH [RN3, ranalexin analog] | – | >250 (>113) micromolar | – | >250 (>113) micromolar | >250 (>113) micromolar | – | >250 (>113) micromolar | >250 (>113) micromolar | – | – | – | – | MIC S. pneumoniae (30 clinical isolates), in parentheses [1]: >250 (>113) micromolar; MIC E. coli ATCC 25922, in parentheses (E. coli ATCC 25922): >250 (>113) micromolar; MIC MRSA, in parentheses [3]: >250 (>113) micromolar; MIC S. aureus ATCC 25923, in parentheses (S. aureus ATCC 25923): >250 (>113) micromolar
LLPWKWPWWKWRR-NH2 [IN1, indolicidin analog] | 31.2 to 62.5 µg/mL | >250 (129) micromolar | 31.2 µg/mL | >250 (>129) micromolar | >250 (>129) micromolar | 31.2 µg/mL | – | >250 (>129) micromolar | 31.2 µg/mL | 31.25 to 62.5 µg/mL | 31.2 µg/mL | 210 min | –
RLPWRWPRRPWRR-NH2 [IN4, indolicidin analog] | 250 µg/mL | >250 (>130.4) micromolar | 250 µg/mL | >250 (>130.4) micromolar | >250 (>130.4) micromolar | 250 µg/mL | – | >250 (>130.4) micromolar | – | > 250 µg/mL | 125 µg/mL | – | MIC S. aureus ATCC 25923 (S. aureus ATCC 25923; broth microdilution): 125 µg/mL
RRPWRWPRWPWRR-NH2 [IN3, indolicidin analog] | 62.5 µg/mL | >250 (>125) micromolar | 31.2 µg/mL | >250 (>125) micromolar | >250 (>125) micromolar | 62.5 µg/mL | – | >250 (>125) micromolar | 31.2 µg/mL | – | 31.2 µg/mL | 150 min | –
RRPWRWPWWPWRR-NH2 [IN2, indolicidin analog] | 31.2 to 62.5 µg/mL | >250 (>123) micromolar | 31.2 µg/mL | >250 (>123) micromolar | >250 (>123) micromolar | 31.2 µg/mL | – | >250 (>123) micromolar | 31.2 µg/mL | 31.25 to 62.5 µg/mL | 31.2 µg/mL | 210 min | –
